Laboratory results: patent publication US4331661A, “Bombesin analogs” (The Salk Institute for Biological Studies, priority 1980, dated 1982)
Non-standard residues stand in square brackets, D forms with d. Residues, ends and D or L forms follow the SMILES beside them. d(pGlu) = O=C1CC[C@H](C(=O)O)N1

Key:
[1] = tested on: Male Sprague-Dawley-CD rats; experiment: Rise in plasma glucose after the 60 minute core temperature measurement; type: in vivo, rat; design: concentration or dose not given beside the values; details: rise in plasma glucose relative to Bombesin (= 100), after intracisternal injection
Protocol: Male Sprague-Dawley-CD rats weighing 180-200 grams each were housed in temperature and humidity controlled quarters. The rats were fed a standard rat food ration and tap water ad libitum. After being anesthetized with ether, peptides were injected into the cisterna magna of the brain of each rat. The peptides were dissolved in artificial CSF or distilled water. Ten microliters of a peptide solution containing the specified amounts of the peptide were injected. Immediately following the injection, the animals were transferred to a cold room maintained at 4° C. Rectal temperatures were recorded with a thermo-probe at 60 minutes following injection. All experiments were carried out in a randomized block design. Following analyses of variance, differences between groups were determined by the multiple range test of Dunnet and Duncan using the computer program Exbiol.
Following the 60 minute measurement of core temperature, the rats were rapidly decapitated, blood was collected and plasma levels of glucose were determined using a Beckman glucose analyzer. The results in causing a rise in plasma glucose relative to Bombesin are set forth hereinafter in Table III.

[2] = tested on: Male Sprague-Dawley-CD rats; experiment: Thermoregulative properties: core (rectal) temperature of rats at 4° C. after intracisternal injection; type: in vivo, rat; details: 60 minutes following injection, control 36.5°
Protocol: The thermoregulative properties of the peptides were determined as follows:

[3] = tested on: mammals; details: compared with neurotensin and bombesin; cited from earlier work

Molecule | POTENCY (Plasma Glucose) [1] | CORE TEMPERATURE ([2]; dosage 7 nanomoles) | CORE TEMPERATURE ([2]; dosage 7 picomoles) | CORE TEMPERATURE ([2]; dosage 20 picomoles) | CORE TEMPERATURE ([2]; dosage 70 picomoles) | CORE TEMPERATURE ([2]; dosage 10 picomoles) | CORE TEMPERATURE ([2]; dosage 100 picomoles) | potency (analgesic and thermoregulative effects) [3] | CORE TEMPERATURE ([2]; dosage 1 nanomole)
CSCC[C@H](NC(=O)[C@H](CC(C)C)NC(=O)[C@H](Cc1cnc[nH]1)NC(=O)CNC(=O)[C@@H](NC(=O)[C@H](C)NC(=O)[C@H](Cc1c[nH]c2ccccc12)NC(=O)[C@H](CCC(N)=O)NC(=O)[C@H](CC(N)=O)NC(=O)CNC(=O)[C@H](CC(C)C)NC(=O)[C@H](CCCN=C(N)N)NC(=O)[C@H](CCC(N)=O)NC(=O)[C@@H]1CCC(=O)N1)C(C)C)C(N)=O [Bombesin] | 100 | 32.1 °C | 34.7 °C | 33.8 °C | 33 °C | – | – | – | –
CSCC[C@H](NC(=O)[C@H](CC(C)C)NC(=O)[C@H](Cc1c[nH]cn1)NC(=O)[C@@H](C)NC(=O)[C@@H](NC(=O)[C@H](C)NC(=O)[C@H](Cc1c[nH]c2ccccc12)NC(=O)[C@@H](CCC(N)=O)NC(C)=O)C(C)C)C(N)=O [Peptide No. 3] | 150 | – | – | – | – | 32.3 °C | 31.9 °C | – | –
[d(pGlu)]WAV[dA]HLM-NH2 | – | – | – | – | – | – | – | more potent than neurotensin, it is less potent than bombesin | –
CSCC[C@H](NC(=O)[C@H](CC(C)C)NC(=O)[C@H](Cc1c[nH]cn1)NC(=O)CNC(=O)[C@@H](NC(=O)[C@H](C)NC(=O)[C@H](Cc1c[nH]c2ccccc12)NC(=O)[C@H](C)NC(C)=O)C(C)C)C(N)=O [Peptide No. 4] | 40 | – | – | – | – | 35.1 °C | 33.2 °C | – | –
CSCC[C@H](NC(=O)[C@H](CC(C)C)NC(=O)[C@H](Cc1c[nH]cn1)NC(=O)[C@@H](C)NC(=O)[C@@H](NC(=O)[C@H](C)NC(=O)[C@H](Cc1c[nH]c2ccccc12)NC(=O)[C@H](C)NC(C)=O)C(C)C)C(N)=O [Peptide No. 2] (Ac-AWAV[dA]HLM-NH2) | 150 | – | – | – | – | 34.3 °C | 31.9 °C | – | 30.4 °C
CSCC[C@H](NC(=O)[C@H](CC(C)C)NC(=O)[C@H](Cc1c[nH]cn1)NC(=O)CNC(=O)[C@@H](NC(=O)[C@H](C)NC(=O)[C@H](Cc1c[nH]c2ccccc12)NC(=O)[C@H](Cc1c[nH]cn1)NC(C)=O)C(C)C)C(N)=O [Peptide No. 1] | 100 | – | – | – | – | 34.3 °C | 33.2 °C | – | 32.6 °C
